Reference: patent publication US20240270762A1, “PENICILLIN-BINDING PROTEIN INHIBITORS” (priority 2021, published 2024)
Values after ≈ are worked out from the molar mass of the structure shown.

Columns and labels:
E. coli ATCC 25922 = test: microbe, parasite or virus in culture; type: cell-based; conditions: Escherichia coli, ATCC25922, read-out: MIC E. coli 25922
E. coli AG100 = test: microbe, parasite or virus in culture; type: cell-based; conditions: Escherichia coli, AG100, read-out: MIC E. coli AG100
E. coli 901C = test: microbe, parasite or virus in culture; type: cell-based; conditions: Escherichia coli, read-out: MIC E. coli 901C
E. coli D22 = test: microbe, parasite or virus in culture; type: cell-based; conditions: Escherichia coli, D22, read-out: MIC E. coli D22
K. pneumoniae 848844 = test: microbe, parasite or virus in culture; type: cell-based; conditions: Klebsiella pneumoniae, 848844, read-out: MIC K. pneumoniae 848844
K. pneumoniae UMM = test: microbe, parasite or virus in culture; type: cell-based; conditions: Klebsiella pneumoniae, read-out: MIC K. pneumoniae UMM
K. pneumoniae SI-117 = test: microbe, parasite or virus in culture; type: cell-based; conditions: Klebsiella pneumoniae, SI117, read-out: MIC K. pneumoniae SI-117
P. aeruginosa ATCC 27853 = test: microbe, parasite or virus in culture; type: cell-based; conditions: Pseudomonas aeruginosa, ATCC27853, read-out: MIC P. aeruginosa ATCC 27853
A. baumannii ATCC 19606 = test: microbe, parasite or virus in culture; type: cell-based; conditions: Acinetobacter baumannii, ATCC19606, read-out: MIC, A. baumannii ATCC 19606
P. aeruginosa ATCC 35151 = test: microbe, parasite or virus in culture; type: cell-based; conditions: Pseudomonas aeruginosa, ATCC35151, read-out: MIC P. aeruginosa ATCC 35151
[1] = test system: P. aeruginosa (ΔmexAB-oprM); test: Broth microdilution MIC in CAMHB; type: cell-based; conditions: Pseudomonas aeruginosa; read-out: MIC P. aeruginosa ΔmexAB-oprM
N. gonorrhoeae FA1090 = test: Liquid broth MIC in Fastidious broth; conditions: Neisseria gonorrhoeae, FA1090, read-out: Minimum Inhibitory Concentration (MIC), N. gonorrhoeae FA 1090
N. gonorrhoeae MS11 = test: Liquid broth MIC in Fastidious broth; conditions: Neisseria gonorrhoeae, MS11, read-out: Minimum Inhibitory Concentration (MIC), N. gonorrhoeae MS11
N. gonorrhoeae WHO M = test: Liquid broth MIC in Fastidious broth; conditions: Neisseria gonorrhoeae, read-out: Minimum Inhibitory Concentration (MIC), N. gonorrhoeae WHO M
N. gonorrhoeae WHO K = test: Liquid broth MIC in Fastidious broth; conditions: Neisseria gonorrhoeae, read-out: Minimum Inhibitory Concentration (MIC), N. gonorrhoeae WHO K
N. gonorrhoeae WHO X = test: Liquid broth MIC in Fastidious broth; conditions: Neisseria gonorrhoeae, read-out: Minimum Inhibitory Concentration (MIC), N. gonorrhoeae WHO X
N. gonorrhoeae WHO Z = test: Liquid broth MIC in Fastidious broth; conditions: Neisseria gonorrhoeae, read-out: Minimum Inhibitory Concentration (MIC), N. gonorrhoeae WHO Z

Structure (SMILES)	MIC (E. coli ATCC 25922)	MIC (E. coli AG100)	MIC (E. coli 901C)	MIC (E. coli D22)	MIC (K. pneumoniae 848844)	MIC (K. pneumoniae UMM)	MIC (K. pneumoniae SI-117)	MIC (P. aeruginosa ATCC 27853)	MIC (A. baumannii ATCC 19606)	MIC (P. aeruginosa ATCC 35151)	MIC [1]	MIC (N. gonorrhoeae FA1090)	MIC (N. gonorrhoeae MS11)	MIC (N. gonorrhoeae WHO M)	MIC (N. gonorrhoeae WHO K)	MIC (N. gonorrhoeae WHO X)	MIC (N. gonorrhoeae WHO Z)
O=C(O)c1cccc2c1OB(O)[C@@H](NC(=O)[C@H](NC(=O)[C@@H]1CCCN1)c1ccc(P(=O)(O)O)cc1)C2 [Example 173, (R)-2-hydroxy-3-((R)-2-(4-phosphonophenyl)-2-((S)-pyrrolidine-2-carboxamido)acetamido)-3,4-dihydro-2H-benzo[e][1,2]oxaborinine-8-carboxylic acid]	> 128 µg/mL	> 128 µg/mL	32 to 64 µg/mL (≈ 61.9 to 124 µM)	32 to 64 µg/mL (≈ 61.9 to 124 µM)	> 128 µg/mL	32 to 64 µg/mL (≈ 61.9 to 124 µM)	32 to 64 µg/mL (≈ 61.9 to 124 µM)	> 128 µg/mL	> 128 µg/mL	8 to 16 µg/mL (≈ 15.5 to 30.9 µM)	32 to 64 µg/mL (≈ 61.9 to 124 µM)	4 to 8 µg/mL (≈ 7.73 to 15.5 µM)	16 to 32 µg/mL (≈ 30.9 to 61.9 µM)	4 to 8 µg/mL (≈ 7.73 to 15.5 µM)	16 to 32 µg/mL (≈ 30.9 to 61.9 µM)	16 to 32 µg/mL (≈ 30.9 to 61.9 µM)	16 to 32 µg/mL (≈ 30.9 to 61.9 µM)
O=C(O)c1cccc2c1OB(O)[C@@H](NC(=O)C(NC(=O)N1CCCNC1=O)c1ccc(P(=O)(O)O)cc1)C2 (stereo partly drawn) [Example 56, (3R)-2-hydroxy-3-(2-(2-oxohexahydropyrimidine-1-carboxamido)-2-(4-phosphonophenyl)acetamido)-3,4-dihydro-2H-benzo[e][1,2]oxaborinine-8-carboxylic acid]	> 128 µg/mL	> 128 µg/mL	2 to 4 µg/mL (≈ 3.66 to 7.32 µM)	8 to 16 µg/mL (≈ 14.6 to 29.3 µM)	> 128 µg/mL	> 128 µg/mL	> 128 µg/mL	> 128 µg/mL	> 128 µg/mL	< 1 µg/mL	> 128 µg/mL	< 1 µg/mL	1 to 2 µg/mL (≈ 1.83 to 3.66 µM)	< 1 µg/mL	16 to 32 µg/mL (≈ 29.3 to 58.6 µM)	16 to 32 µg/mL (≈ 29.3 to 58.6 µM)	4 to 8 µg/mL (≈ 7.32 to 14.6 µM)
Nc1ncc(C(=O)N[C@@H](C(=O)N[C@H]2Cc3cccc(C(=O)O)c3OB2O)c2ccc(P(=O)(O)O)cc2)s1 (racemic) [Example 50, (R)-3-((S)-2-(2-aminothiazole-5-carboxamido)-2-(4-phosphonophenyl)acetamido)-2-hydroxy-3,4-dihydro-2H-benzo[e][1,2]oxaborinine-8-carboxylic acid and (R)-3-((R)-2-(2-aminothiazole-5-carboxamido)-2-(4-phosphonophenyl)acetamido)-2-hydroxy-3,4-dihydro-2H-benzo[e][1,2]oxaborinine-8-carboxylic acid]	> 128 µg/mL	> 128 µg/mL	8 to 16 µg/mL (≈ 14.6 to 29.3 µM)	32 to 64 µg/mL (≈ 58.6 to 117 µM)	> 128 µg/mL	> 128 µg/mL	> 128 µg/mL	> 128 µg/mL	> 128 µg/mL	2 to 4 µg/mL (≈ 3.66 to 7.32 µM)	32 to 64 µg/mL (≈ 58.6 to 117 µM)	1 to 2 µg/mL (≈ 1.83 to 3.66 µM)	4 to 8 µg/mL (≈ 7.32 to 14.6 µM)	1 to 2 µg/mL (≈ 1.83 to 3.66 µM)	16 to 32 µg/mL (≈ 29.3 to 58.6 µM)	16 to 32 µg/mL (≈ 29.3 to 58.6 µM)	16 to 32 µg/mL (≈ 29.3 to 58.6 µM)
O=C(O)c1cccc2c1OB(O)[C@@H](NC(=O)[C@H](NC(=O)c1cnc3sccn3c1=O)c1ccc(P(=O)(O)O)cc1)C2 (single isomer, unassigned) [Example 195]	> 128 µg/mL	> 128 µg/mL	2 to 4 µg/mL (≈ 3.34 to 6.69 µM)	8 to 16 µg/mL (≈ 13.4 to 26.7 µM)	> 128 µg/mL	> 128 µg/mL	> 128 µg/mL	32 to 64 µg/mL (≈ 53.5 to 107 µM)	> 128 µg/mL	< 1 µg/mL	8 to 16 µg/mL (≈ 13.4 to 26.7 µM)	< 1 µg/mL	4 to 8 µg/mL (≈ 6.69 to 13.4 µM)	1 to 2 µg/mL (≈ 1.67 to 3.34 µM)	16 to 32 µg/mL (≈ 26.7 to 53.5 µM)	16 to 32 µg/mL (≈ 26.7 to 53.5 µM)	4 to 8 µg/mL (≈ 6.69 to 13.4 µM)
N#Cc1ccnc(C(=O)NC(C(=O)N[C@H]2Cc3cccc(C(=O)O)c3OB2O)c2ccc(P(=O)(O)O)cc2)c1 (stereo partly drawn) [Example 179, (3R)-3-(2-(4-cyanopicolinamido)-2-(4-phosphonophenyl)acetamido)-2-hydroxy-3,4-dihydro-2H-benzo[e][1,2]oxaborinine-8-carboxylic acid]	> 128 µg/mL	> 128 µg/mL	8 to 16 µg/mL (≈ 14.5 to 29.1 µM)	32 to 64 µg/mL (≈ 58.2 to 116 µM)	> 128 µg/mL	> 128 µg/mL	> 128 µg/mL	> 128 µg/mL	> 128 µg/mL	2 to 4 µg/mL (≈ 3.63 to 7.27 µM)	> 128 µg/mL	1 to 2 µg/mL (≈ 1.82 to 3.63 µM)	16 to 32 µg/mL (≈ 29.1 to 58.2 µM)	4 to 8 µg/mL (≈ 7.27 to 14.5 µM)	16 to 32 µg/mL (≈ 29.1 to 58.2 µM)	16 to 32 µg/mL (≈ 29.1 to 58.2 µM)	16 to 32 µg/mL (≈ 29.1 to 58.2 µM)
